Test results: patent US20220177456A1, “COMPOUNDS, COMPOSITIONS AND METHODS” (Denali Therapeutics Inc., priority 2019, published 2022)

System: ISR pathway (ATF4 translation), H4 ATF4-NLuc (clone 17) cell line
Assay: ATF4 Nano Luciferase reporter integrated stress response (ISR) assay in H4 ATF4-NLuc cells
Assay type: cell-based
Details: human H4 neuroglioma ATF4-NLuc cells; compound 30 minutes, then 50 μm sodium arsenite for 6 hours; luminescence readout
From the text: Cellular stress leads to activation of the integrated stress response pathway through one of four eukaryotic initiation factor 2α kinases and halts global translation, while allowing for the translation of select transcripts like ATF4 (activating transcription factor 4) that are important for the response to cellular stress. During normal conditions, small open reading frames (ORFs) in the 5′ UTR of ATF4 occupy the ribosome and prevent translation of the coding sequence of ATF4. During stress conditions however, the ribosome scans past these upstream ORFs and preferentially begins translation at the coding sequence of ATF4. In this way, the translation, and thus protein level of ATF4 is a readout of ISR pathway activation. Thus, a fusion of the uORFs and the beginning of the coding sequence of ATF to a common cellular reporter like nano-luciferase allows for a sensitive and high-throughput readout of ISR pathway activity.
Compounds as provided herein were tested in the following assay. The ATF4 Nano Luciferase reporter was constructed by fusing the human full length 5′ untranslated region (5′-UTR) and a small portion of the coding sequence of the ATF4 gene upstream of the Nano Luciferase (NLuc) coding sequence lacking it's start codon. Specifically, nucleotides +1 through +364 (relative to the transcriptional start site) of ATF4 transcript variant 2 (NCBI NM_182810.2) flanked 5′ by EcoRI and 3′ by BamHI restriction enzyme sites were synthesized and cloned into the EcoRI/BamHI cloning sites of pLVX-EF1a-IRES-Puro lentivirus vector (Clontech). Lentiviral particles were produced with Lenti-X single shots (VSV-G, Clontech) according to the manufacturer's instructions and used to transduce a human H4 neuroglioma cell line (ATCC HT1B-148). H4 cells were selected with 1.25 μg/mL Puromycin, and clonal cell lines generated by limiting dilution. We utilized this cell line to generate an integrated stress response (ISR) assay to evaluate the activity of ISR pathway inhibitors via luminescence readout. The H4 ATF4-NLuc (clone 17) cell line is plated at a density of […] cells in 96-well or 384-well respectively in DMEM +10% fetal bovine serum. 24-hours later test compounds diluted in dimethyl sulfoxide (DMSO) are added for 30 minutes at 37° C., followed by ISR pathway activation with 50 μm sodium arsenite aqueous solution for 6 additional hours. Nano Glo luciferase reagent (N1150, Promega) is added according to manufacturer instructions and the luminescence signal (corresponding to the level of ATF4 translation and thus ISR pathway activation) is read with a standard plate reader with luminescence detection capabilities.
In the tables below, activity of the tested compounds is provided, and in Table 3 as follows: +++=0.003 μM<IC50<1 μM; ++=IC50 1-10 μM; +=IC50>10 μM.

| IC50 [nM] | SMILES |
| --- | --- |
| 3 to 1000 | O=C(NCC1CC(OC(F)(F)F)C1)[C@@H]1CC[C@@H](n2cnc(-c3ccc(Cl)c(F)c3)c2)CO1 (stereo partly drawn) [Example 23, (2S,5R)-5-[4-(4-chloro-3-fluoro-phenyl)imidazol-1-yl]-N-[[3-(trifluoromethoxy)cyclobutyl]methyl] tetrahydropyran-2-carboxamide] |
| 3 to 1000 | O=C(N[C@H]1C[C@@H](COC(F)(F)F)C1)[C@@H]1CC[C@@H](n2cnc(-c3ccc(Cl)c(F)c3)c2)CO1 [Example 24, (2S,5R)-5-[4-(4-chloro-3-fluoro-phenyl)imidazol-1-yl]-N-[3-cis-(trifluoromethoxymethyl)cyclobutyl] tetrahydropyran-2-carboxamide] |
| 3 to 1000 | O=C(N[C@H]1C[C@@H](OC(F)(F)F)C1)[C@@H]1CC[C@@H](n2cnc(-c3ccc(Cl)c(F)c3)c2)CO1 [Example 25, (2S,5R)-5-[4-(4-chloro-3-fluoro-phenyl)imidazol-1-yl]-N-[3-cis-(trifluoromethoxy)cyclobutyl] tetrahydropyran-2-carboxamide] |
| 3 to 1000 | O=C(NC[C@H]1C[C@@H](OC(F)(F)F)C1)[C@@H]1CC[C@@H](n2cnc(-c3ccc(Cl)c(F)c3)c2)CO1 [Example 26, (2S,5R)-5-[4-(4-chloro-3-fluoro-phenyl)imidazol-1-yl]-N-[[3-cis-(trifluoromethoxy)cyclobutyl]methyl] tetrahydropyran-2-carboxamide] |
| 3 to 1000 | O=C(COc1ccc(Cl)cc1)N[C@@H]1CC[C@@H](C(=O)NCc2ccc(C(F)(F)F)cn2)OC1 [Example 27, (2S,5R)-5-[[2-(4-chlorophenoxy)acetyl]amino]-N-[[5-(trifluoromethyl)-2-pyridyl]methyl] tetrahydropyran-2-carboxamide] |
| 3 to 1000 | O=C(COc1ccc(C(F)(F)F)cc1)N[C@@H]1CC[C@@H](C(=O)Nc2ccc3cc(C(F)(F)F)ccc3n2)OC1 [Example 28, (2S,5R)-5-[[2-[4-(trifluoromethyl)phenoxy]acetyl]amino]-N-[6-(trifluoromethyl)-2-quinolyl]tetrahydropyran-2-carboxamide] |
| 3 to 1000 | O=C(COc1ccc(Cl)cc1)N[C@@H]1CC[C@@H](C(=O)NCc2ccc(Cl)cc2)OC1 [Example 29, (2S,5R)-5-[[2-(4-chlorophenoxy)acetyl]amino]-N-[(4-chlorophenyl)methyl] tetrahydropyran-2-carboxamide] |
| 3 to 1000 | O=C(COc1ccc(Cl)c(F)c1)N[C@@H]1CC[C@@H](C(=O)N2CCC(OC(F)(F)F)CC2)OC1 [Example 30, 2-(4-chloro-3-fluoro-phenoxy)-N-[(3R,6S)-6-[4-(trifluoromethoxy)piperidine-1-carbonyl]tetrahydropyran-3-yl]acetamide] |
| 3 to 1000 | O=C(COc1ccc(Cl)c(F)c1)N[C@@H]1CC[C@@H](C(=O)N2CCC(OC(F)(F)F)C2)OC1 (stereo partly drawn) [Example 31, 2-(4-chloro-3-fluoro-phenoxy)-N-[(3R,6S)-6-[3-(trifluoromethoxy)pyrrolidine-1-carbonyl]tetrahydropyran-3-yl]acetamide] |
